Experimental data taken from patent publication US12365699B2, “Elastase inhibitor prodrug and use thereof” (SUZHOU ARK BIOPHARMACEUTICAL CO., LTD., priority 2020, dated 2025).

Experiments:
[1] = In vivo pharmacokinetics in mice, pulmonary drug concentration after intratracheal administration; parameters: species or system male C57BL/6 mice; conditions: intratracheal 2 mg/kg
From the text: Compare the pharmacokinetics of the final prodrug compound of Example 1 and the control example (compound 52 in WO 2018/175173 A1) in mice:
7-9-week-old male C57BL/6 mice were randomly divided into two groups after the adaptation phase: the elastase inhibitor control group and the Example 1 group.

[2] = Stability test of prodrug in different solvents (vehicle water with 5% ethanol, anhydrous ethanol, acetonitrile) at room temperature; assay type: physicochemical
Method: (§1) Two simulated lung fluids including Gamble's buffer and ALF buffer were prepared according to literature reports (Marques M. R. C., Loebenberg R., Almukainzi M., Simulated Biological Fluids with Possible Application in Dissolution Testing, Dissolution Technologies, 2011, 18(3): 15-28) to test the prodrug stability in simulated lung fluids. In addition, according to the need for animal experimental preparations and sample analysis, three different solvents were prepared: vehicle for animal experiments (water with 5% ethanol), anhydrous ethanol and acetonitrile. They were used to test the stability of pre-dose formulations in animals and collected samples during analysis. Dissolve example 1 compound (2 mg) and example 2 compound (2 mg) in 1 mL of the above-filtered buffer or solvent, respectively. Observe whether there is undissolved particulate matter after vortex shaking, and then filter the suspension or solution to remove undissolved compounds and immediately take 100 μL as the sample at the start of the stability test. Then the ratio of prodrug and hydrolyzate (namely compound 52 in WO 2018/175173 A1, used as a control) was analyzed by HPLC. Afterwards the samples in the two simulated lung fluids were placed on an orbital shaker at 37° C. and shaken at 200 rpm, and sampling at 0.5 hours, 1 hour, 2 hours, 4 hours and 20 hours, and the ratio of prodrug and hydrolyzate were analyzed by HPLC immediately. Let the samples dissolved in the three solvents stand at room temperature, sampling at 1 hour, 3 hours, and 18 hours, and the ratio of prodrug and hydrolyzate were immediately detected.

[3] = Stability test of prodrug in simulated lung fluids (Gamble's buffer, ALF buffer) at 37° C., HPLC ratio of prodrug and hydrolyzate; assay type: physicochemical; conditions: for ratio of the hydrolysis: within half an hour, ratio maintained for the next 20 hours; for hydrolysis: linear hydrolysis
Method: as §1

[4] = male, C57BL/6, mouse, lung, other: intratracheal, parent compound dosed, read-out: drug concentration in the lungs

SMILES | conversion of prodrug in mice [1] | effect on lung concentration and residence time of the control example compared to direct administration of the control example [1] | concentration at 6 h [1, 4] | concentration at 12 h ([1]; male, C57BL/6, mouse, lung, other: intratracheal, parent compound dosed, at 12 hours, read-out: drug concentration in the lungs) | hydrolysis in acetonitrile ([2]; up to 18 hours) | hydrolysis in anhydrous ethanol ([2]; anhydrous ethanol, up to 18 hours) | hydrolyzed in the resolvent ([2]; resolvent, after 18 hours) | hydrolyzed in the resolvent ([2]; resolvent, in 3 hours) | ratio of the hydrolysis ([3]; acidic ALF buffer (pH 4.5)) | ratio of the hydrolysis ([3]; neutral Gamble's buffer (pH 7.4)) | hydrolysis rate ([2]; anhydrous ethanol) | hydrolysis rate ([2]; resolvent) | hydrolysis ([3]; acidic ALF buffer (pH 4.5), in about 15 hours) | hydrolysis ([3]; neutral Gamble's buffer (pH 7.4), at 2.5 hours) | drug concentration in the lungs ([1]; parent compound dosed, at 12 hours)
CC(C)[C@H](NC(=O)[C@@H]1CCCN1C(=O)[C@@H](NC(=O)c1ccc(C(=O)NCC(=O)O)cc1)C(C)C)B1O[C@@H]2C[C@@H]3C[C@@H](C3(C)C)[C@]2(C)O1 [Example 1, N-(4-(((S)-3-methyl-1-((S)-2-(((R)-2-methyl-1-((3aS,4S,6S,7aR)-3a,5,5-trimethylhexahydro-4,6-methanobenzo[d][1,3,2]dioxaborol-2-yl)propyl)carbamoyl)pyrrolidin-1-yl)-1-oxobutan-2-yl)carbamoyl)benzoyl)glycine] | quickly converted into the control example | greatly increases the concentration and residence time of the control example in the lungs | 1070 ng/g | 120 ng/g | hardly hydrolyzed | hardly hydrolyzed | about 20% | about 18% | 40% | 25% |  |  |  |  | 
CC(C)[C@H](NC(=O)c1ccc(C(=O)NCC(=O)O)cc1)C(=O)N1CCC[C@H]1C(=O)N[C@@H](C(C)C)[B-]12OC(=O)C[N+]1(C)CC(=O)O2 (stereo partly drawn) [Example 2, N-(4-(((S)-3-methyl-1-((S)-2-(((R)-2-methyl-1-(6-methyl-4,8-dioxo-1,3,6,2-dioxazaborocan-2-yl)propyl)carbamoyl)pyrrolidin-1-yl)-1-oxobutan-2-yl)carbamoyl)benzoyl)glycine] |  |  |  |  | did not hydrolyze |  |  |  |  |  | about 0.5 % per hour | about 1 % hydrolysis per hour | about 50% | about 50% | 
CC(C)[C@H](NC(=O)[C@@H]1CCCN1C(=O)[C@@H](NC(=O)c1ccc(C(=O)NCC(=O)O)cc1)C(C)C)B(O)O [control example, N-(4-(((S)-1-((S)-2-(((R)-1-borono-2-methylpropyl)carbamoyl)pyrrolidin-1-yl)-3-methyl-1-oxobutan-2-yl)carbamoyl)benzoyl)glycine, reference compound] |  |  | 153 ng/g |  |  |  |  |  |  |  |  |  |  |  | completely cleared
